Consider two compounds from PMC4718634, “Murine GPRC6A Mediates Cellular Responses to L-Amino Acids, but Not Osteocalcin Variants” (PLoS ONE, 2016).

Bridge positions count the residues as written; N and C are the ends. Ends that are not written are not given here.

In experiment [1] the test system is GPRC6A. The arrangement: method as in PMID 15576628. The conditions noted are these: chimera with goldfish 5.24 receptor and full length GPRC6A; ref [1]; cited from earlier work.
The test system of experiment [2] is mC6A. Conditions: ref [18] (supplement list); cited from earlier work. The source says: (§1) Supplement pone.0146846.s004.docx, table 1 | column: Functional assay
The subject of experiment [3] is Unknown species GPRC6A. Conditions: ref [11] (supplement list); cited from earlier work.
Text: as §1

The subject of experiment [4] is TC6. The conditions noted are these: endogenous; ref [11] (supplement list); cited from earlier work.
Text: as §1

Experiment [5] has as its system hC6A. The conditions noted are these: ref [9] (supplement list); cited from earlier work.
Text: as §1

Experiment [6] relates to 22RV1 / PC-3. The conditions noted are these: endogenous; ref [9] (supplement list); cited from earlier work.
Text: as §1

Experiment [7] deals with PC-3 cells. The conditions noted are these: endogenous; ref [18] (supplement list); cited from earlier work.
Text: as §1

Experiment [8] has as its target T1, mGPRC6A (mouse GPRC6A) (Mus musculus, UniProt Q8K4Z6).
T1 sequence (Q8K4Z6 21-928): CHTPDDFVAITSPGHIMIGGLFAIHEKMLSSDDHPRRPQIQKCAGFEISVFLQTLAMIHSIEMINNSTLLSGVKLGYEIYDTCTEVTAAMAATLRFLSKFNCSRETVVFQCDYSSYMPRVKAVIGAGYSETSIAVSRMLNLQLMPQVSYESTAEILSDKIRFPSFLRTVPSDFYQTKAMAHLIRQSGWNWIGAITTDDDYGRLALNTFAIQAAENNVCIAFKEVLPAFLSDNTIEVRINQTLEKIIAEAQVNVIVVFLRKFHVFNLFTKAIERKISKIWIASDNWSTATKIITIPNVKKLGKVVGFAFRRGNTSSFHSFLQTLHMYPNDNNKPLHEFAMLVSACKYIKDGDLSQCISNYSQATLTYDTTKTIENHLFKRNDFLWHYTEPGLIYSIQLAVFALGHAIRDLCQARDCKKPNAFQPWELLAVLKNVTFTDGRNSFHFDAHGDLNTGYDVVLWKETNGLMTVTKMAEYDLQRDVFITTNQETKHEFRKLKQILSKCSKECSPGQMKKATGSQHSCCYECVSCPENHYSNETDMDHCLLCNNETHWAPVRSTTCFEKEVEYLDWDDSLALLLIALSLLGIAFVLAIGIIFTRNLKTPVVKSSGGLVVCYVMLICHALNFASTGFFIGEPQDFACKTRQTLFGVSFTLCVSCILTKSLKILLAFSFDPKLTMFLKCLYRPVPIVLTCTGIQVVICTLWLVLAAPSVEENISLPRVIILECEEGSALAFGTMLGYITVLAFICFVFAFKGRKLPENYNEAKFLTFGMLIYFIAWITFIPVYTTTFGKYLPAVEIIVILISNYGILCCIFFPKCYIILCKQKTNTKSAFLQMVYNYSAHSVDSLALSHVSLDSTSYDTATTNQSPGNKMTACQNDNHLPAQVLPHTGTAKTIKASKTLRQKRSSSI
Briefly: Ca^2+i mobilisation, FlpIn-TREx-HEK293-mGPRC6A cells. The format is cell-based. As for the experimental part:
pcDNA 5/FRT/TO constructs were isogenically integrated into a FlpIn-TREx-HEK293 cell line (Life Technologies). FlpIn-TREx-HEK293-mGPRC6A and FlpIn-TREx-HEK293-hGPRC6A cells were then selected using 600 μg/ml hygromycin and 5 μg/ml blasticidin and grown in culture medium consisting of Dulbecco’s Modified Eagle Medium (DMEM), supplemented with 10% (v/v) foetal bovine serum (FBS) at 37°C in 5% CO2 and were sub-cultured in a 1:3 ratio every 3–4 days. Cells were cultured overnight in the presence of 1 μg/ml tetracycline to induce GPRC6A expression. […] 48 h after transfection, cells were selected using 3 μg/ml puromycin and grown as above.
FlpIn-TREx-HEK293-mGPRC6A cells were seeded into T75 flasks at 70% confluency. Cells were transfected with 15μg of plasmid DNA (Gαq or GαqG66D) with Lipofectamine LTX according to manufacturer's instructions, then incubated for 24h at 37°C in 5% CO2. Cells were plated into 96-well plates (10^5 cells/well) and equilibrated at 37°C in 5% CO2 for 4-6h to adhere, whereupon cells were serum starved overnight at 37°C in 5% CO2. For the assay, cells were washed twice in Ca^2+ assay buffer (150 mM NaCl, 2.6 mM KCl, 1.2 mM MgCl2, 10 mM dextrose, 10 mM HEPES, 2.2 mM CaCl2, 0.5% (w/v) BSA and 4 mM probenecid; pH 7.4). Buffer was then replaced with Ca^2+ assay buffer containing 1μM Fluo-4-AM and incubated for 1h at 37°C in 5% CO2. Cells were washed twice more and replaced with Ca^2+ assay buffer at 37°C. Serial dilutions of test agonists were added by injection in a Flexstation™ (Molecular Devices) and fluorescence was measured at 485nm excitation and 520nm emission wavelengths. Agonist responses were normalised to the peak of response to 100 μM ATP.
(§2) Data for all HEK293 assays represent the mean ± SEM of at least three independent experiments (except cell impedance, n = 2). For GLP-1 release, the data represent mean ± SEM of three to five independent experiments (except for OCN, wash; n = 2). For insulin release assays, data represent the mean ± SEM of three independent experiments (except for islet studies; n = 2). Insulin release data were normalised to the response to vehicle in either low or high [glucose]. Statistical analysis for GLP-1 release data were performed by one-way ANOVA, followed by Sidak’s multiple comparisons test (treating wash / no wash datasets separately). Statistical analyses for insulin release data were performed by two-way ANOVA (with [glucose] and drug treatment as group variables), followed by Sidak’s multiple comparisons test. Where only high [glucose] groups were evaluated, statistical analysis was by one-way ANOVA followed by Sidak’s multiple comparisons test.

In experiment [9] the test system is mouse pancreatic islets. Briefly: Insulin release from mouse pancreatic islets. Format: cell-based. The conditions noted are these: L-arginine 20 mM; *P < 0.05 vs Vehicle; n = 2; S3 Fig B. As for the experimental part: Islets were collagenase-isolated from mice (10 x C57Bl/6; 12–13 weeks; Charles River) and incubated overnight in RPMI (with 10% FBS (v/v), 10 mM HEPES, 100 U/ml penicillin, 100 μg/ml streptomycin, sodium pyruvate and 10 mM glucose) at 37°C in 5% CO2. Islets were seeded into a 96-well plate (4 / well) in Kreb’s buffer containing 2.8 mM glucose and washed twice with the same buffer. 200 μl test drugs were added in Kreb’s buffer with the required concentration of glucose and incubated at 37°C in 5% CO2 for 90 min. The plate was centrifuged for 10 s at 200 g, supernatant recovered and insulin levels detected as described above. This protocol was approved by the IDRS (Institut de Recherches Servier) Institutional Animal Care and Use Committee.
as §2, with “Concentration-response data were analysed using a three or four parameter logistic function (Motulsky & Christopoulos, 2004) to generate estimates of agonist potency (LogEC50). Data” for “Data”

In experiment [10] the test system is STC-1 cell line. The conditions noted are these: ref [22]; cited from earlier work. The source says:
Given the range of OCN variants profiled, we propose that species and/or carboxylation status is unlikely to be a cause of the lack of activity in our assays. Other potential explanations are that the species of GPRC6A is critical or that HEK293 cells lack the necessary scaffolding and/or signalling proteins found in cells endogenously expressing GPRC6A. Unfortunately, human GPRC6A was not expressed at the cell surface in our cells, precluding a study of its pharmacology. However, we identified a range of immortalised murine entero-endocrine and pancreatic β-cell lines that express Gprc6a mRNA ...

In experiment [11] the test system is GPRC6A. Conditions: HEK293 cells recombinantly expressing GPRC6A; ref [8], [10]–[12]; cited from earlier work. An excerpt: Additional interest in GPRC6A has emerged due to several studies reporting that it mediates the metabolic and endocrine effects of the de-carboxylated form of the osteoblast-derived peptide, osteocalcin (OCN).

As a reminder, the EC50 is the concentration needed to bring the measured effect to its halfway point. Higher therefore signals weaker potency. For `N=C(N)NCCC[C@H](N)C(=O)O` [L-arginine], the “agonist response of GPRC6A” value in experiment [1] is “mediates responses to L-amino acids”. For the same compound, the cAMP response entry in [2] was “cAMP – response to Testosterone, L-Arg pERK1/2 – response to Testosterone”. In addition, the pERK1/2 response entry was “pERK1/2 - response to Ca^2+, L-Arg, OCN” in experiment [3]; “pERK1/2 – response to Ca^2+, ZnCl2, OCN, Arginine, Testosterone-BSA” in experiment [5]; “pERK1/2 – response to Ca^2+, ZnCl2, OCN, Arginine, Testosterone-BSA Proliferation – response to Ca^2+, OCN PSA, Runx2 expression – response to OCN, Arg, R1881 Chemotaxis (22RV1) – response to Ca^2+, OCN” in [6]; “pERK1/2 – response to Testosterone, L-Arg” in experiment [7]. The “pERK1/2, pPKD1 response” value in experiment [4] was “pERK1/2, pPKD1 – response to OCN, L-Arg”. In addition, the “PSA, Runx2 expression response” value in experiment [6] is given as “pERK1/2 – response to Ca^2+, ZnCl2, OCN, Arginine, Testosterone-BSA Proliferation – response to Ca^2+, OCN PSA, Runx2 expression – response to OCN, Arg, R1881 Chemotaxis (22RV1) – response to Ca^2+, OCN”. For the same compound, the response in experiment [8] was half-maximal at 15.8 µM (EC50). Further, the “potency at murine GPRC6A (calcium and inositol phosphate, words)” value in [8] (calcium mobilisation and inositol phosphate accumulation, Discussion) is “most potent agonists”. Moreover, in experiment [8] (co-expressing GαqG66D, Fig 1D), the “rank order of potency, Ca^2+ mobilisation” value is reported as “L-ornithine > L-arginine = L-lysine”. Further, the “glucose-sensitive insulin secretion, L-arginine” value in experiment [9] was “significantly increased GSIS”.
Consider “de-carboxylated OCN: de-carboxylated form of the osteoblast-derived peptide, osteocalcin (YLYQWLGAPVPYPDPLEPRREVCELNPDCDELADHIGFQEAYRRFYGPV; disulfide 23-29 (inferred); not fully specified; printed as YLYQWLGAPVPYPDPLEPRREVCELNPDCDELADHIGFQEAYRRFYGPV-NH2/-COOH; ends not checked; UniProt P02818 52-100, looked up)”, for which the GLP-1 release result in experiment [10] is on record as “evoke GLP-1 release”. Besides, in [11], the ERK1/2 phosphorylation entry is recorded as “can stimulate cAMP accumulation or ERK1/2 phosphorylation” and the cAMP accumulation entry is recorded as “can stimulate cAMP accumulation or ERK1/2 phosphorylation”.
